Calls of active or inactive are those of the source.
Tests used:
[1] = target: T1, G-protein coupled receptor 35 (Homo sapiens, UniProt Q9HC97); experiment: SAR analysis of Antagonists of the GPR35 Receptor using an Image-Based Assay - Set 6. [Related pubchem assays (depositor defined):AID2013, AID2026]; format: functional
Cannabinoid receptor 2 [2] = target: T2, Cannabinoid receptor 2 (Homo sapiens, UniProt P34972); experiment: SAR analysis of agonists of the Cannabinoid Receptor 2 using an Image-Based Assay - Set 3. [Related pubchem assays (depositor defined):AID2013, AID2026]; format: functional
T2 sequence (P34972 whole entry): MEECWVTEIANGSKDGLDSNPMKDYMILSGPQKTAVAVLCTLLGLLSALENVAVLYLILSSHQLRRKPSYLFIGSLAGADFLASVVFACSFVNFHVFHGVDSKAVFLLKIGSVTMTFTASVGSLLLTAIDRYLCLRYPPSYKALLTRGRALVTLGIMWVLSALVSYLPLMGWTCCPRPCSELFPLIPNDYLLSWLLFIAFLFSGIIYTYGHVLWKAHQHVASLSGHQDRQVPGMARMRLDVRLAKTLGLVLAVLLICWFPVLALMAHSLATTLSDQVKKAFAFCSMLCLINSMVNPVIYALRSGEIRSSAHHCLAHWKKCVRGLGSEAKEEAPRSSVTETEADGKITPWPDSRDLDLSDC

Cannabinoid receptor 1 [3] = target: T3, Cannabinoid receptor 1 (Homo sapiens, UniProt P21554); experiment: SAR analysis of agonists of the Cannabinoid Receptor 1 using an Image-Based Assay - Set 4. [Related pubchem assays (depositor defined):AID2013, AID2026]; format: functional
T3 sequence (P21554 whole entry): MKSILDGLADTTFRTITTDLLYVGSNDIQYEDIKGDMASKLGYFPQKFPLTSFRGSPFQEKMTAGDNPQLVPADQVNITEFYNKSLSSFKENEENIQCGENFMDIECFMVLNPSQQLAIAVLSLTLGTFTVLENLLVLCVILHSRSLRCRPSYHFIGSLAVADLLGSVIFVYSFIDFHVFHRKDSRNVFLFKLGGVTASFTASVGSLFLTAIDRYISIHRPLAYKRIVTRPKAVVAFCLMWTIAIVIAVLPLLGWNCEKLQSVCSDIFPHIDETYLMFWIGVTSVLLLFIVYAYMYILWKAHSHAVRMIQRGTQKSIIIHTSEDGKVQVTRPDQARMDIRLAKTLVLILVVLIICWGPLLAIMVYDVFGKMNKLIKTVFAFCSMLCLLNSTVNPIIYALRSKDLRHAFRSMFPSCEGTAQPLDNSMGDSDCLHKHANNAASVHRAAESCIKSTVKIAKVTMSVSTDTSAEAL

[4] = target: T4, G-protein coupled receptor 55 (Homo sapiens, UniProt Q9Y2T6); experiment: SAR Analysis of Selective Antagonists of GPR55 using an Image-Based Assay - Set 4. [Related pubchem assays (depositor defined):AID2013, AID2026]; format: functional
T4 sequence (Q9Y2T6 whole entry): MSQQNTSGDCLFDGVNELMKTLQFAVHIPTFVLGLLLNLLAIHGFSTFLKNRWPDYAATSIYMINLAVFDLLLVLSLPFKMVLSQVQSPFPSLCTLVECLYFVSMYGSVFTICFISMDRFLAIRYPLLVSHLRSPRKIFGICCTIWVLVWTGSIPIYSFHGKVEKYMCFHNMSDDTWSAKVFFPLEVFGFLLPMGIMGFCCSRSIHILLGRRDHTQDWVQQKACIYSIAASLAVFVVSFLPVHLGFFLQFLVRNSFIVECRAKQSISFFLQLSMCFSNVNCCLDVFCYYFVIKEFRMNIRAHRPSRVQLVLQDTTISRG

Cannabinoid receptor 1 [5] = target: T3, Cannabinoid receptor 1; experiment: SAR analysis of antagonists of the Cannabinoid Receptor 1 using an Image-Based Assay - Set 4. [Related pubchem assays (depositor defined):AID2013, AID2026]; format: functional
Cannabinoid receptor 2 [6] = target: T2, Cannabinoid receptor 2; experiment: SAR analysis of antagonists of the Cannabinoid Receptor 2 using an Image-Based Assay - Set 3. [Related pubchem assays (depositor defined):AID2013, AID2026]; format: functional
[7] = target: T1, G-protein coupled receptor 35; experiment: SAR analysis of Agonists of the GPR35 Receptor using an Image-Based Assay - Set 4. [Related pubchem assays (depositor defined):AID2013, AID2026]; format: functional
BJ [8] = experiment: cytotoxicity toward BJ-TERT-LT-ST fibroblasts, dose response, cell-based, RAS-independent, luminescence (AID 1935); format: functional; details: Homo sapiens;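 further: BJ fibroblasts immortalized with TERT plus LT and ST oncogenes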
[9] = Luminescence Cell-Based Dose Response HTS to Identify Activators of 5'UTR Stem-Loop Driven Prion Protein mRNA Translation in H4-C Neuroglioblastoma Cells. [Related pubchem assays: 1829 (Project Summary), 1814 (Primary HTS)]; format: functional
[10] = Luminescence Cell-Based Dose Confirmation HTS to Identify Inhibitors of 5'UTR Stem-Loop Driven Alpha-Synuclein mRNA Translation in H4 Neuroglioblastoma Cells. [Related pubchem assays: 1827 (Project Summary), 1813 (Primary HTS)]; format: functional
[11] = cytotoxicity toward DRD oncogenic fibroblasts, dose response, cell-based, non-viral oncogenic, luminescence (AID 1934); format: functional; details: Homo sapiens
cells [12] = format: functional, cell-based
[13] = HEK293 cell cytotoxicity, dose response, cytotoxicity control, dry powder samples (AID 720567); format: functional, cell-based
[14] = Luminescence Cell-Based Dose HTS Response to Identify Inhibitors of 5'UTR Stem-Loop Driven Prion Protein mRNA Translation in H4-C Neuroglioblastoma Cells. [Related pubchem assays (depositor defined):AID1814, AID1827]; format: functional
[15] = Luminescence Cell-Based Dose Response HTS to Identify Inhibitors of 5'UTR Stem-Loop Driven Prion Protein mRNA Translation in H4 Neuroglioblastoma Cells. [Related pubchem assays: 1827 (Project Summary), 1813 (Primary HTS)]; format: functional
[16] = Luminescence Cell-Based Dose Response HTS to Identify Activators of Luciferase Translation or Activity in H4-C Neuroglioblastoma Cells. [Related pubchem assays: 1829 (Project Summary), 1814 (Primary HTS)]; format: functional
BJ [17] = experiment: cytotoxicity toward BJ-TERT fibroblasts, dose response, cell-based, RAS-independent, luminescence (AID 1933); format: functional; details: Homo sapiens
[18] = luciferase reporter signal reduction – luminescence, H4-C neuroglioblastoma cells, dose response (AID 2458); format: functional, cell-based;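 further: H4 neuroglioblastoma cells stably carrying a luciferase reporter gene fusion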
[19] = inhibitors of SNCA 5'UTR-driven reporter translation, confirmation, H4 neuroglioma cells, luminescence (AID 1988); format: functional, cell-based
[20] = Luminescence Cell-Based Dose Retest to Confirm Activators of 5'UTR Stem-Loop Driven Alpha-Synuclein mRNA Translation in H4 Neuroglioblastoma Cells. [Related pubchem assays (depositor defined):AID1813, AID1829]; format: functional
BJ [21] = experiment: cells; format: functional, cell-based; details: Homo sapiens
[22] = inhibitors of SNCA 5'UTR-driven translation, confirmation, luminescence, H4 neuroglioblastoma cells, dose confirmation (AID 2454); format: functional, cell-based;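 further: H4 neuroglioblastoma cells carrying an alpha-synuclein 5'UTR luciferase reporter; potency for inhibition of the luciferase signal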
[23] = Luminescence Cell-Based Dose Response HTS to Identify Inhibitors of Luciferase Translation or Activity in H4-C Neuroglioblastoma Cells. [Related pubchem assays: 1813 (Primary HTS), 1827 (Project Summary)]; format: functional
BJ [24] = experiment: cytotoxicity toward Ras-transformed BJeLR fibroblasts, dose response, cell-based, alamar blue fluorescence, cherrypicked samples (AID 2631); format: functional; details: Homo sapiens;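 further: confirmatory dose-response assay in RAS-dependent BJ fibroblasts engineered with TERT, LT and ST, with cytotoxicity read by fluorescence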
[25] = inhibitors of firefly luciferase expression or activity, dose response, H4 neuroglioma cells, luminescence (AID 1990); format: functional, cell-based
X-box-binding protein 1 = target: T5, X-box-binding protein 1 (Homo sapiens, UniProt P17861); format: functional, Cricetulus griseus;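 further: confirmatory dose-response counter-screen serving a CHOP assay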
T5 sequence (P17861 whole entry): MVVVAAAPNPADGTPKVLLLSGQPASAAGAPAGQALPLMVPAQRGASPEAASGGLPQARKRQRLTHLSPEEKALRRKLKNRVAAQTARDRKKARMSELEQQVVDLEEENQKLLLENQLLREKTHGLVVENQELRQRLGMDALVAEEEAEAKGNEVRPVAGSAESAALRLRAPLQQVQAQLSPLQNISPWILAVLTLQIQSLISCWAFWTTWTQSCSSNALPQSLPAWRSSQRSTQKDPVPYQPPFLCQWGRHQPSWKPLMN

[26] = target: DNA damage-inducible transcript 3 protein (Mus musculus, UniProt P35639); format: functional, Cricetulus griseus
DNA damage-inducible transcript 3 protein, sequence (P35639 whole entry): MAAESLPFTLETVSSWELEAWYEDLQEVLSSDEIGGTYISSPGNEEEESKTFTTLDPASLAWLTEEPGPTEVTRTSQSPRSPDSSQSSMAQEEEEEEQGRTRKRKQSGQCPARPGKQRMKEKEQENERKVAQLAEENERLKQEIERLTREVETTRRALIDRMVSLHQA

[27] = target: T6, Kappa-type opioid receptor (Homo sapiens, UniProt P41145); format: functional
T6 sequence (P41145 whole entry): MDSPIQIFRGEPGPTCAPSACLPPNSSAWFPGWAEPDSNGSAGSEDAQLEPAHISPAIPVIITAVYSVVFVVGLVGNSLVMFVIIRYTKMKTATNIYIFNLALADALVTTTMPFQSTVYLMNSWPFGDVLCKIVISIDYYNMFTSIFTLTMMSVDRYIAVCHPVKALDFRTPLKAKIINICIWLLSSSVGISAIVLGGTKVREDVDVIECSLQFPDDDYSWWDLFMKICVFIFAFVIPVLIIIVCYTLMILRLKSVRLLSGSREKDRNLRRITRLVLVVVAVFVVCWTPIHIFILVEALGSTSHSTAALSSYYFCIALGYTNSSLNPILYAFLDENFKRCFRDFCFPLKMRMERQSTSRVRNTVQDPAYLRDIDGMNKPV

[28] = target: T7, Heat shock factor protein 1 (Mus musculus, UniProt P38532); experiment: HSF1 potentiators in luciferase reporter cells, confirmation, cell-based, NIH3T3, luminescence, dose retest (AID 435004); format: functional;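 further: stress induced by proteasome inhibitor MG132 added 30 min after compound; luciferase reporter driven by HSF1 response element in NIH3T3 cells; actives raise luminescence as potentiators of the MG132 stress response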
T7 sequence (P38532 whole entry): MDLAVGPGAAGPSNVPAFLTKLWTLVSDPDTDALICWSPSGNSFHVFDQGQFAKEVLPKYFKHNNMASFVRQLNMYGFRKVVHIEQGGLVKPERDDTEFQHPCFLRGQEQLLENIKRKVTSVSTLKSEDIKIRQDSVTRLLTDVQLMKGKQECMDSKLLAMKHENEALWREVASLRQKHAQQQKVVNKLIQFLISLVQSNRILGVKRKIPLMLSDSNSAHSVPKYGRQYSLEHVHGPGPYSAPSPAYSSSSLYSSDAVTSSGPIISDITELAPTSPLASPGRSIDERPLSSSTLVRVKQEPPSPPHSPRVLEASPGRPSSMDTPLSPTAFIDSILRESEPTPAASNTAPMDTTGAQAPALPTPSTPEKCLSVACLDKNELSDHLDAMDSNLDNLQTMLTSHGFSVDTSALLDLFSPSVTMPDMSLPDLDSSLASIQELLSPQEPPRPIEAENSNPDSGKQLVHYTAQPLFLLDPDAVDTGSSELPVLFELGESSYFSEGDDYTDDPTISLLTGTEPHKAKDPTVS

cells [29] = format: functional
Beta-galactosidase = Beta-galactosidase (Escherichia coli, UniProt Q8VNN2); format: functional
Beta-galactosidase, sequence (Q8VNN2 whole entry): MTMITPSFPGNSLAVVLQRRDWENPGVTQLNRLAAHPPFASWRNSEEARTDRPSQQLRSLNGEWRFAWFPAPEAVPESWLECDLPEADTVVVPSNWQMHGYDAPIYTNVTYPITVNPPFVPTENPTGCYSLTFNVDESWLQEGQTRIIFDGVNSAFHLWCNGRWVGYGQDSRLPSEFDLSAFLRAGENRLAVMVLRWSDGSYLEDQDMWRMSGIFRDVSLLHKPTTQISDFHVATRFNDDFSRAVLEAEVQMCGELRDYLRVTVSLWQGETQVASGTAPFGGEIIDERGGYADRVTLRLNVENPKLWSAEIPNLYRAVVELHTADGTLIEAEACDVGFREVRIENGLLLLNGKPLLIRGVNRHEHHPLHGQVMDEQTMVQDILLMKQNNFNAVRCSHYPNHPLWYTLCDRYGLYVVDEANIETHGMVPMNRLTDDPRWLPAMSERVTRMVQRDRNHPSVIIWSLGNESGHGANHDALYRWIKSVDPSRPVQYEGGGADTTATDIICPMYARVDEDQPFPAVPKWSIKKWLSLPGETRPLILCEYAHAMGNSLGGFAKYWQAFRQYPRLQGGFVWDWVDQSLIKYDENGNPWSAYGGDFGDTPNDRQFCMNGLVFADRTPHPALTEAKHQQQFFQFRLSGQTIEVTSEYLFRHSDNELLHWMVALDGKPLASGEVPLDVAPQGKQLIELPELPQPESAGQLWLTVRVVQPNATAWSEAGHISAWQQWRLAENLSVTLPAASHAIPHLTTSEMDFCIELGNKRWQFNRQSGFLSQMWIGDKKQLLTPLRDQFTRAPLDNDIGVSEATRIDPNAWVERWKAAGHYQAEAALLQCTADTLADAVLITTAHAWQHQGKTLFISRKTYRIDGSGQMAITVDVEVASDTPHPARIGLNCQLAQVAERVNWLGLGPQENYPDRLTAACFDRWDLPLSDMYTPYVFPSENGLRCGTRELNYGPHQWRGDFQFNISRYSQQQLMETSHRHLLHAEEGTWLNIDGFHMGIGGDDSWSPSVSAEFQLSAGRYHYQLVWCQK

[30] = THP-1 cell cytotoxicity, dose response, cytotoxicity control for non-replicating M. tuberculosis project (AID 489025); format: functional
CHO = experiment: cytotoxicity in TLR9-MyD88 CHO cells, dose response, cytotoxicity control for TLR9-MyD88 binding inhibitor project, cell-based, luminescence (AID 588339); format: functional, hamster; details: Cricetulus griseus;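 further: CHO cells stably coexpressing TLR9 and MyD88 fusions from primary screen; compound exposure lasted 48 hours before viability readout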
[31] = Vero E6 cell cytotoxicity, dose response, cytotoxicity control for non-replicating M. tuberculosis project, secondary assay (AID 492998); format: functional, VeroE6; details: Vero C1008
[32] = HepG2 cell cytotoxicity, dose response, cytotoxicity control for non-replicating M. tuberculosis project (AID 489018); format: functional; details: Mycobacterium tuberculosis
[33] = target: T6, Kappa-type opioid receptor; format: functional; remark: listed apart in the source
Beta Lactamase = Beta Lactamase (Pseudomonas aeruginosa, UniProt Q932Y6); experiment: beta-lactamase reporter inhibitor potency, dose response, artefact control for TLR9-MyD88 binding inhibitor project, BLA reporter cells, FRET fluorescence (AID 588341); format: cell-based;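 further: cell based assay in CHO-K1 cells stably expressing beta-lactamase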
Beta Lactamase, sequence (Q932Y6 whole entry): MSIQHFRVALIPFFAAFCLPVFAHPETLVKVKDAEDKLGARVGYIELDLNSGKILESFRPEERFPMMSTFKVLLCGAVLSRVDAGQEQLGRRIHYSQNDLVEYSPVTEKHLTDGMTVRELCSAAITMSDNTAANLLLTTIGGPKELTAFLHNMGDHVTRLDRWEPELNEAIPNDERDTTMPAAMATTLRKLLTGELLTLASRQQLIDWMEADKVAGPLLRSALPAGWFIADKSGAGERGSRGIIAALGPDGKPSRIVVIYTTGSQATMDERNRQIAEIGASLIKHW

Mucolipin-3 = Mucolipin-3 (Homo sapiens, UniProt Q8TDD5); experiment: Fluorescence counterscreen assay for […] agonists: dose response cell-based high-throughput screening assay to identify agonists of the transient receptor potential channel ML3 (TRPML3). [Related pubchem assays: 1424, 1448 ]; format: functional
Ion channel NompC = Ion channel NompC (Danio rerio, UniProt Q7T1G6); experiment: Dose response cell-based high-throughput screening assay for agonists of the transient receptor potential channel N1 (TRPN1). [Related pubchem assays (depositor defined):AID1424, AID1448]; format: functional
Ion channel NompC, sequence (Q7T1G6 whole entry): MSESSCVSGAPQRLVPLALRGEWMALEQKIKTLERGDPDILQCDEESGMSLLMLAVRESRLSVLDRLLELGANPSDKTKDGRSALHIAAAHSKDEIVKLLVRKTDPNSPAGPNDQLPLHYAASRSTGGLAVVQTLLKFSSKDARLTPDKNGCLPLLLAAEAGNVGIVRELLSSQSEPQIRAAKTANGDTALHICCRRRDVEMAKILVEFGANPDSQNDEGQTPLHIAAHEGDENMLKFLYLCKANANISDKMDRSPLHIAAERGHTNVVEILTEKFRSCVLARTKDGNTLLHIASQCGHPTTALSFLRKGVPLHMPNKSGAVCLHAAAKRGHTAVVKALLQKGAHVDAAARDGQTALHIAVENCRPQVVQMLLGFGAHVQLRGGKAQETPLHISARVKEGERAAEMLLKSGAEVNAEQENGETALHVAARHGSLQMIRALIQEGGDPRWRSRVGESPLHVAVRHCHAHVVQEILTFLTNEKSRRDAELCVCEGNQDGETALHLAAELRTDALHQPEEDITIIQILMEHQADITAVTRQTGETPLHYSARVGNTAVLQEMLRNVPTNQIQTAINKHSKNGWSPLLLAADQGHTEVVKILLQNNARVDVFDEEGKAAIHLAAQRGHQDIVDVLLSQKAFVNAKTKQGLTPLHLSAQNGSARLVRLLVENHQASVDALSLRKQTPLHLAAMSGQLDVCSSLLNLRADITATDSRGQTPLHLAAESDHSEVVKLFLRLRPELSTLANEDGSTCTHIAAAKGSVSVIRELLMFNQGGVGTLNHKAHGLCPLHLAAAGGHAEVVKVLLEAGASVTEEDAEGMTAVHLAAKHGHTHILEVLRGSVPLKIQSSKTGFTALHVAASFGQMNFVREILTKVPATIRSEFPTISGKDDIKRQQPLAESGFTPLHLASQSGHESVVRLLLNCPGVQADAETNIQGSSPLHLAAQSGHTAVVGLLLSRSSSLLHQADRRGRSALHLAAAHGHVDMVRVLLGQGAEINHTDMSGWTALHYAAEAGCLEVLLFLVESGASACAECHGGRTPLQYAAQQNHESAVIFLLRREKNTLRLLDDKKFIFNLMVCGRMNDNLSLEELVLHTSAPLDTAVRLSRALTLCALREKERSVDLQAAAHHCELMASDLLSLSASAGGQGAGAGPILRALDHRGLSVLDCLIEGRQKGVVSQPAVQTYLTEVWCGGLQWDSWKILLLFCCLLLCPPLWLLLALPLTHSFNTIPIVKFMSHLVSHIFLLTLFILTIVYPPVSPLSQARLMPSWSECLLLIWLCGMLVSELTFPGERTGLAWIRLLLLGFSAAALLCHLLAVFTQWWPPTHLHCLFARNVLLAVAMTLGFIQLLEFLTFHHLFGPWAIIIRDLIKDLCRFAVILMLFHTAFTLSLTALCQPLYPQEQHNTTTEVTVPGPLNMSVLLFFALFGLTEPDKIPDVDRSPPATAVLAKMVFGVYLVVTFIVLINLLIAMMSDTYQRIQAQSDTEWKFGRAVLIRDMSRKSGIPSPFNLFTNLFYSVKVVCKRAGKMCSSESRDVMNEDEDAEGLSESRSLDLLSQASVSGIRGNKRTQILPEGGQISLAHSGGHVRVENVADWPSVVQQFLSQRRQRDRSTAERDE

[34] = target: T4, G-protein coupled receptor 55; experiment: GPR55 antagonists blocking LPI-driven arrestin recruitment, primary screen, imaging, U2OS, beta-arrestin-GFP, LPI agonist (AID 2013); format: functional;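 further: antagonist potency measured as reduced agonist-driven arrestin aggregation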
Cannabinoid receptor 2 [35] = target: T2, Cannabinoid receptor 2; experiment: SAR analysis of agonists of the Cannabinoid Receptor 2 using an Image-Based Assay - Set 2. [Related pubchem assays (depositor defined):AID1961, AID1965]; format: functional
Cannabinoid receptor 1 [36] = target: T3, Cannabinoid receptor 1; experiment: SAR analysis of agonists of the Cannabinoid Receptor 1 using an Image-Based Assay - Set 3. [Related pubchem assays (depositor defined):AID1961, AID1965]; format: functional
[37] = target: T1, G-protein coupled receptor 35; experiment: SAR analysis of Agonists of the GPR35 Receptor using an Image-Based Assay - Set 3. [Related pubchem assays (depositor defined):AID1961, AID1965]; format: functional
Cannabinoid receptor 1 [38] = target: T3, Cannabinoid receptor 1; experiment: SAR analysis of antagonists of the Cannabinoid Receptor 1 using an Image-Based Assay - Set 3. [Related pubchem assays (depositor defined):AID1961, AID1965]; format: functional
Cannabinoid receptor 2 [39] = target: T2, Cannabinoid receptor 2; experiment: SAR analysis of antagonists of the Cannabinoid Receptor 2 using an Image-Based Assay - Set 2. [Related pubchem assays (depositor defined):AID1961, AID1965]; format: functional
[40] = target: T1, G-protein coupled receptor 35; experiment: SAR analysis of Antagonists of the GPR35 Receptor using an Image-Based Assay - Set 4. [Related pubchem assays (depositor defined):[…]]; format: functional
[41] = target: T4, G-protein coupled receptor 55; experiment: SAR analysis of selective Agonists of GPR55 using an Image-Based Assay - Set 2. [Related pubchem assays (depositor defined):AID1961, AID1965]; format: functional

T1 sequence (Q9HC97 whole entry): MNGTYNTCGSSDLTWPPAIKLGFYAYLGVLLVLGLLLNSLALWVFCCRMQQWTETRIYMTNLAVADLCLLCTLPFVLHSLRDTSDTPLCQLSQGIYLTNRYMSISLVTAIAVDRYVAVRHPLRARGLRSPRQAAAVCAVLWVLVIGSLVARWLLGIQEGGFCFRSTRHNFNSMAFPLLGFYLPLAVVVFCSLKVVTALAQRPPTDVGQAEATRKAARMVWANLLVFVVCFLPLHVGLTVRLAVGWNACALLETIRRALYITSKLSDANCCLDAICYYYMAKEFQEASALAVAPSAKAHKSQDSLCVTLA

COc1ccc(-c2cc(C(=O)Nc3ccc(S(=O)(=O)Nc4ncccn4)cc3)c3ccccc3n2)cc1
inactive: IC50 [1] > 32 µM | EC50 (Cannabinoid receptor 2 [2]) > 32 µM | EC50 (Cannabinoid receptor 1 [3]) > 32 µM | IC50 [4] > 32 µM | IC50 (Cannabinoid receptor 1 [5]) 24.5 µM | IC50 (Cannabinoid receptor 2 [6]) > 32 µM | EC50 [7] > 32 µM

COc1cccc(N2CCN(C(=O)c3ccc(C[S+]([O-])c4ccc(C)cc4)o3)CC2)c1 (stereo not given)
inactive: AC50 [13] > 30 µM
inconclusive: EC50 [9] 0.186 µM | EC50 [16] 0.703 µM | EC50 [20] 36.4 µM | EC50 (BJ [21]) 0.479 µM
active: EC50 (BJ [8]) 0.651 µM | EC50 [10] 36.4 µM | EC50 [11] 0.637 µM | EC50 (cells [12]) 1.57 µM | EC50 [14] 0.186 µM | EC50 [15] 12.6 µM | EC50 (BJ [17]) 0.873 µM | EC50 [18] 0.93 µM | EC50 [19] < 0.1 µM | EC50 [22] 1.43 µM | EC50 [23] 0.703 µM | EC50 (BJ [24]) < 0.104 µM | EC50 [25] 5.76 µM

CCOC(=O)c1c(-c2ccccc2)oc2ccc(O)c(CN3CCOCC3)c12
10 µM: Absolute IC50 (CHOP) [26]
< 10 µM: Absolute IC50 (XBP1) (X-box-binding protein 1)

CS(=O)(=O)c1sc(C#N)c2c1C(=O)CC(c1ccccc1)C2 (stereo not given)
inactive: EC50 (Beta-galactosidase) > 31.5 µM
3.24 µM: IC50 [33]
> 120 µM (not active): EC50 [25]
active: IC50 [27] 4.62 µM | EC50 [28] 17.8 µM | IC50 (cells [29]) 0.78 µM | CC50 [30] 4.22 µM | EC50 [15] 10.3 µM | IC50 (CHO) 2.74 µM | CC50 [31] 5.26 µM | CC50 [32] 4.85 µM | EC50 [19] 7.83 µM | IC50 (Beta Lactamase) 7.08 µM

COC(=O)c1ccc(NC(=O)Nc2cccc(F)c2)cc1
> 29.9 µM (not active): EC50 (Mucolipin-3)
inactive: EC50 (Ion channel NompC) > 29.9 µM

CCOC(=O)c1c(NC(=O)C2=C(C)N=C(S)NC2c2ccc(C)cc2)sc(C)c1C (stereo not given)
active: IC50 [34] < 0.5 µM

CCC1CCc2sc(C(=O)Nc3cc(S(=O)(=O)N4CCOCC4)ccc3OC)cc2C1 (stereo not given)
inactive: EC50 (Cannabinoid receptor 2 [35]) > 32 µM | EC50 (Cannabinoid receptor 1 [36]) > 32 µM | EC50 [37] > 32 µM | IC50 (Cannabinoid receptor 1 [38]) > 32 µM | IC50 (Cannabinoid receptor 2 [39]) > 32 µM | IC50 [40] > 32 µM
active: EC50 [41] 0.409 µM

From ChEMBL document CHEMBL1201862, “PubChem BioAssay data set” (2004)
